US20250194600A1, “MESOIONIC ARYLPYRIDAZINIUM DERIVATIVE OR SALT THEREOF AND INSECTICIDAL AGENT CONTAINING THE COMPOUND AND METHOD FOR USING SAME” (NIHON NOHYAKU CO., LTD., priority 2022, published 2025)

Legend:
[1] = system: Small Brown Planthopper (Laodelphax striatellus); test: Insecticidal test on small brown planthopper, dip treatment of rice plant seedlings; format: in vivo; conditions: 192 h, rice seedlings dipped 30 seconds, 3rd-instar larvae, counted 8 days after inoculation, read-out: insecticidal efficacy (corrected mortality rate) against small brown planthopper
Excerpt: (§1) • A: the mortality rate is 100%. • B: the mortality rate is 90 to 99%. • C: the mortality rate is 80 to 89%. • D: the mortality rate is 50 to 79%. • E: the mortality rate is 0 to 49.
Insecticidal Test on Small Brown Planthopper (Laodelphax striatellus)
The compounds represented by the general formula (1) of the present invention or salts thereof were separately dispersed in water and diluted to 50 ppm or 500 ppm. Rice plant seedlings (variety: Nihonbare) were dipped in the agrochemical dispersions for 30 seconds. After air-dried, each seedling was put into a separate glass test tube and inoculated with ten 3rd-instar larvae of small brown planthopper, and then the glass test tubes were capped with cotton plugs. At 8 days after the inoculation, the numbers of surviving larvae and dead larvae were counted, the corrected mortality rate was calculated according to the formula shown below, and the insecticidal efficacy was evaluated according to the criteria of Test Example 1.

[2] = system: Western flower thrips (Frankliniella occidentalis); test: Insecticidal test on western flower thrips, larvae on kidney bean leaf pieces; format: in vivo; conditions: 96 h, hatched larvae on kidney bean leaf pieces, counted 4 days after treatment, read-out: insecticidal efficacy (corrected mortality rate) against western flower thrips
Excerpt: as §1
Insecticidal Test on Western flower thrips (Frankliniella occidentalis)
Female adults of western flower thrips were inoculated onto kidney bean leaf pieces, and allowed to lay eggs thereon for one day, then the female adults were removed. After 3 days, the hatched larvae on the leaf pieces were counted, and then the agrochemical dispersions diluted to 50 ppm or 500 ppm, each of which contained the compound described in Tables 1 to 5 as an active ingredient were applied. The number of larvae of the species surviving at 4 days after the treatment was counted, and the corrected mortality rate was calculated according to the formula shown below, and the insecticidal efficacy was evaluated according to the criteria of Test Example 1. This test was conducted in duplicate.

O=C(Nc1ccc(F)cc1)c1c([S-])c[n+](-c2ccc(C(F)(F)F)nc2)nc1O [2-1, 4-((4-fluorophenyl)carbamoyl)-3-hydroxy-1-(6-(trifluoromethyl)pyridin-3-yl)pyridazin-1-ium-5-thiolate]
100%: mortality at 500 ppm [1] | mortality at 50 ppm ([2]; 50 ppm) | mortality at 500 ppm ([2]; 500 ppm)
